In patent US7230104B2, “Fungicidal 5-phenyl substituted 2-(cyanoamino) pyrimidines” (priority 2000, dated 2007):
Values after ≈ are worked out from the molar mass of the structure shown.

How the values were obtained:
Rhizoctonia solani = settings: 10 ppm; 3–7 days of incubation
Description: After 3–7 days of incubation, inhibition of mycelial growth is recorded using the following scale: The data obtained are shown in Table VI.

Venturia inaequalis = experiment: Evaluation of in vivo fungicidal activity, Apple Scab (AS); settings: plants sprayed with 200 ppm test solution, inoculated the same day
[1] = test system: Pyricularia grisea sp. oryzae; assay type: in vivo; settings: Rice Blast; plants sprayed with 200 ppm test solution, inoculated the same day
[2] = Evaluation of in vivo fungicidal activity, Grape downy mildew (GDM); set-up: species or system Uniclnula necator; settings: plants sprayed with 200 ppm test solution, inoculated the same day
Pyricularia Oryzae = assay type: cell-based; settings: lowest concentration causing total inhibition of mycelial growth; 6–12 days incubation at 18 to 25° C.; visual inspection

**Q.** With `CC(Nc1nc(N(C)C#N)nc(Cl)c1-c1c(F)cc(F)cc1F)C(F)(F)F` (centres unmarked) [Example 1, 2-(N-cyano-N-methylamino)-4-chloro-5-(2,4,6-trifluorophenul)-6-(1,1,1-trifluoroprop-2-ylamino)-pyrimidine] as the compound, how does the “Rhizoctonia solani (Rice sheath blight) inhibition of mycelial growth rating” value (Rhizoctonia solani) read?
**A.** 7

**Q.** For `CCCCN(C#N)c1nc(Cl)c(-c2c(F)cc(F)cc2F)c(NC(C)C(F)(F)F)n1` (centres unmarked) [Example 2], which “AS disease control rating” value (Venturia inaequalis) is on record?
**A.** 0 (0)

**Q.** What about the “RB disease control rating” value [1] of the same compound?
**A.** 0 (0)

**Q.** And the “GDM disease control rating” value [2]?
**A.** 0 (0)

**Q.** What does the source list for `CC(C)Nc1nc(N(C)C#N)nc(Cl)c1-c1c(F)cc(F)cc1F` [Example 3]?
**A.** MIC (Pyricularia Oryzae): 3.13 µg/mL (≈ 8.8 µM); AS disease control rating (Venturia inaequalis): 7 (90–95); RB disease control rating [1]: 5 (60–74); GDM disease control rating [2]: 7 (90–95)

**Q.** Which MIC (Pyricularia Oryzae) does the source give for `CN(C#N)c1nc(Cl)c(-c2c(F)ccc(F)c2F)c(NC2CCCC2)n1` [Example 4] here?
**A.** >100 µg/mL

**Q.** What about the “AS disease control rating” value (Venturia inaequalis) of the same compound?
**A.** 5 (60–74)

**Q.** What about the “RB disease control rating” value [1] of the same compound?
**A.** 3 (30–44)

**Q.** What about the “GDM disease control rating” value [2] of the same compound?
**A.** 3 (30–44)

**Q.** What about the “Rhizoctonia solani (Rice sheath blight) inhibition of mycelial growth rating” value (Rhizoctonia solani) of the same compound?
**A.** 7

**Q.** Which results are given for `CC1CCN(c2nc(N(C)C#N)nc(Cl)c2-c2c(F)cccc2Cl)CC1` [Example 5]?
**A.** MIC (Pyricularia Oryzae): 25 µg/mL (≈ 63.4 µM); AS disease control rating (Venturia inaequalis): 9 (100); RB disease control rating [1]: 4 (45–59); GDM disease control rating [2]: 0 (0); Rhizoctonia solani (Rice sheath blight) inhibition of mycelial growth rating (Rhizoctonia solani): 0

**Q.** Which MIC (Pyricularia Oryzae) does the source give for `CCC(C)Nc1nc(N(C)C#N)nc(Cl)c1-c1c(F)cccc1Cl` (centres unmarked) [Example 6] here?
**A.** 6.25 µg/mL (≈ 17 µM)

**Q.** And the “AS disease control rating” value (Venturia inaequalis)?
**A.** 9 (100)

**Q.** What about the “RB disease control rating” value [1] of the same compound?
**A.** 6 (75–89)

**Q.** And the “GDM disease control rating” value [2]?
**A.** 3 (30–44)

**Q.** And the “Rhizoctonia solani (Rice sheath blight) inhibition of mycelial growth rating” value (Rhizoctonia solani)?
**A.** 0

**Q.** With `CC1CCN(c2nc(N(C)C#N)nc(Cl)c2-c2c(F)cc(F)cc2F)CC1` [Example 7] as the compound, how does the MIC (Pyricularia Oryzae) read?
**A.** 100 µg/mL (≈ 253 µM)

**Q.** What about the “Rhizoctonia solani (Rice sheath blight) inhibition of mycelial growth rating” value (Rhizoctonia solani) of the same compound?
**A.** 0

**Q.** With `CC(N(C)c1nc(N(C)C#N)nc(Cl)c1-c1c(F)cc(F)cc1F)C(F)(F)F` (centres unmarked) [Example 8] as the compound, how does the “Rhizoctonia solani (Rice sheath blight) inhibition of mycelial growth rating” value (Rhizoctonia solani) read?
**A.** 7
